No end group written: not given here.
Assays:
[1] = system: human red blood cells (hRBC); assay: Hemolytic activity; assay type: cell-based; details: minimum concentration that caused 5% hemolysis of hRBC (footnote); 1% hRBC in PBS pH 7.4, 1 h, 37°C, OD 492 nm
Protocol: The amount of released hemoglobin by the lysis of erythrocytes was measured for hemolytic activity of peptides. Human erythrocytes were obtained from a healthy donor with written informed consent. The experimental protocol was reviewed and approved by the ethics committee of the Northeast Agricultural University Hospital. The measurement was based on a previously described method. The fresh hRBCs were washed three times by centrifugation (1000 g, 5 min, 4°C) in PBS (pH 7.4), and then resuspended in PBS to obtain the erythrocyte with a dilution of approximately 1% (v/v). Then, 50 µL of hRBCs solution was incubated with 50 µL of different concentrations of the peptides dissolved in PBS for 1 h at 37°C, before centrifugation (1000 g, 5 min, 4°C) again. The absorbance of the supernatants was measured at optical density (OD) 492 nm. […] The control samples for 0% and 100% hemolysis consisted of hRBCs in PBS (Ablank) only and in 0.1% Triton X-100 (Atriton), respectively. The percentage of hemolysis was calculated according to the following equation: [drawing 3]

P. aeruginosa ATCC27853 [2] = details: P. aeruginosa ATCC27853; MHB, 37°C, 18-24 h; at least three times in duplicate
From the text: (§1) E. coli ATCC25922, P. aeruginosa ATCC27853, S. aureus ATCC29213, S. epidermidis ATCC12228, S. faecalis ATCC29212 and B. subtilis CMCC63501 were obtained from the College of Veterinary Medicine, Northeast Agricultural University (Harbin, China), E. coli K88, E. coli CVCC1515 and P. aeruginosa ATCC15442 were bestowed by Prof. J.H. Wang (Gene Engineering Laboratory, Feed Research Institute, Chinese Academy of Agricultural Sciences Beijing, China) and E. coli UB1005 was kindly provided by Prof. Q.S. Qi (State Key Laboratory of Microbial Technology, Shandong University, China). […] Briefly, 50 µl of approximate 0.5–1 × 10^6 colony forming units (CFU)/ml of cells were diluted in Mueller-Hinton broth and distributed to 96-well plate, 50 µl of twofold peptides were added and the plates was incubated at 37°C for 18–24 h. The MIC values were calculated as the lowest peptide concentration that prevented visible turbidity and negative control of the pure broth without microbes. The tests were performed at least three times in duplicate.

[3] = system: Gram-negative and Gram-positive strains; assay: MIC over all tested strains (range, geometric mean); assay type: cell-based; parameters: GM (geometric mean of MIC values from all microbial strains): unit not given here; details: all strains of Table 2
From the text: as §1

P. aeruginosa ATCC27853 [4] = assay: MIC in the presence of physiological salts; assay type: cell-based, Pseudomonas aeruginosa; parameters: unit not given here
From the text: as §1
(§2) The stability of peptides was tested in the MIC assay in different environments, including salt sensitivity, human serum, thermal stability and susceptibility to enzymes. For salt sensitivity, 0.5–1 × 10^6 CFU/ml of P. aeruginosa ATCC27853 and E. coli ATCC25922 were treated with peptides, while different salts were added to MHB, and the final concentrations of physiological salts were as follows: 150 mM NaCl, 4.5 mM KCl, 1 mM MgCl2, 6 µM NH4Cl, 8 µM ZnCl2, 4 µM FeCl3 and […] [33]. Except salt sensitivity, only E. coli ATCC25922 was treated with peptides. […] For testing peptide sensitivity to the proteolytic enzymes, the peptides were incubated in advance at 37°C for 1 h with a 1 mg/ml final concentration of the proteolytic enzymes (trypsin, pepsin, papain and proteinase K). For testing thermal stability, incubation occurred at 100°C for 1 h. After these treatments, the procedures were same as MIC assay described above.

E. coli ATCC25922 [5] = assay: MIC in the presence of physiological salts; assay type: cell-based, Escherichia coli; parameters: unit not given here
From the text: as §1, §2

[6] = Circular dichroism, secondary structure; assay type: physicochemical; details: 150 µM peptide, 25°C, from [θ]222
Protocol: The CD spectra were measured with a CD spectropolarimeter (Jasco, J-820, Tokyo, Japan) at 25°C, using a 0.1 cm path length rectangular quartz cell. The spectra were recorded at between 190 and 250 nm at 10 nm/min scanning speed. At least three scans were conducted for each peptide sample.
The acquired CD spectra were converted to the mean residue ellipticity through the following equation: [drawing 1]
where θM is the mean residue ellipticity [deg.cm2.dmol-1], θobs is the observed ellipticity corrected for the buffer at a given wavelength [mdeg], c is the peptide concentration [mM], l is the path length [mm], and n is the number of amino acids.
The percentage of α-helical structure was calculated as followings: [drawing 2]
where [θ]222 is the experimentally observed mean residue ellipticity at 222 nm, and values for [θ]^0 and [θ]^100 which correspond to 0 and 100% a-helix content at 222 nm, are estimated to be −2000 and −32000, respectively, [29].

E. coli ATCC25922 [7] = assay: MIC after treatment with serum, enzymes and heat; assay type: cell-based, Escherichia coli
From the text: as §1, §2

E. coli ATCC25922 [8] = assay: Kinetics of bacterial killing; assay type: cell-based, Escherichia coli; details: 1× MIC, within 30 min, 37°C, PBS; mean of three repeats
Protocol: Kinetics of the bacterial killing was measured by using E. coli ATCC25922 in logarithmic phase (10^8 CFU/mL). The above bacteria were diluted to 1/1000 with PBS, and 500 µL solutions was added with 500 µL PBS at different final concentrations (1/4, 1/2 and 1 × MIC). The solutions were incubated for 0.5 min, 1 min, 2.5 min, 5 min, 10 min, 20 min, and 40 min at 37°C. The moderately diluted samples were plated on nutrient agar plate (MHA). The bacterial colonies were counted after incubation for 18 h at 37°C. The results were determined and presented as the mean of three repeats.

[9] = all kinds of salts in physiological concentrations

Substance: RFRRLFRIRVRVLKKI-NH2 [R-FV-I16]
- MHC [1]: 128 µM
- MIC (P. aeruginosa ATCC27853 [2]): 4 µM
- GM (geometric mean of MIC values from all microbial strains) [3]: 2
- MIC, CaCl2 (P. aeruginosa ATCC27853 [4]; 2.5 µM CaCl2 in MHB): 4
- MIC, FeCl3 (P. aeruginosa ATCC27853 [4]; 4 µM FeCl3 in MHB): 4
- MIC, NH4Cl (P. aeruginosa ATCC27853 [4]; 6 µM NH4Cl in MHB): 4
- MIC, ZnCl2 (P. aeruginosa ATCC27853 [4]; 8 µM ZnCl2 in MHB): 4
- MIC, MgCl2 (P. aeruginosa ATCC27853 [4]; 1 mM MgCl2 in MHB): 8
- MIC, KCl (P. aeruginosa ATCC27853 [4]; 4.5 mM KCl in MHB): 4
- MIC, NaCl (P. aeruginosa ATCC27853 [4]; 150 mM NaCl in MHB): 4
- MIC, Mix (P. aeruginosa ATCC27853 [4]; [9]): 16
- MIC, Control (P. aeruginosa ATCC27853 [4]; no added salts, unit not given): 4
- MIC, FeCl3 (E. coli ATCC25922 [5]; 4 µM FeCl3 in MHB): 1
- MIC, NH4Cl (E. coli ATCC25922 [5]; 6 µM NH4Cl in MHB): 1
- MIC, ZnCl2 (E. coli ATCC25922 [5]; 8 µM ZnCl2 in MHB): 1
- MIC, MgCl2 (E. coli ATCC25922 [5]; 1 mM MgCl2 in MHB): 4
- MIC, KCl (E. coli ATCC25922 [5]; 4.5 mM KCl in MHB): 1
- MIC, NaCl (E. coli ATCC25922 [5]; 150 mM NaCl in MHB): 4
- MIC, Mix (E. coli ATCC25922 [5]; [9]): 8
- MIC, CaCl2 (E. coli ATCC25922 [5]; in MHB): 1
- MIC, Control (E. coli ATCC25922 [5]; no added salts, unit not given): 1
- α-helical content ([6]; 30 mM SDS): 36%
- α-helical content ([6]; 50% TFE): 69%
- MIC, Serum 25% (E. coli ATCC25922 [7]; E. coli ATCC25922, 25% human serum in MHB): 4
- MIC, Serum 50% (E. coli ATCC25922 [7]; E. coli ATCC25922, 50% human serum in MHB): 16
- MIC, Heat 100°C (E. coli ATCC25922 [7]; E. coli ATCC25922, peptide incubated at 100°C for 1 h): 1
- MIC, Enzymes Caroid (E. coli ATCC25922 [7]; E. coli ATCC25922, peptide pre-incubated 1 h at 37°C with 1 mg/ml enzyme (method names papain)): 8
- MIC, Enzymes Pepsin (E. coli ATCC25922 [7]; E. coli ATCC25922, peptide pre-incubated 1 h at 37°C with 1 mg/ml pepsin): 8
- MIC, Enzymes Proteinase K (E. coli ATCC25922 [7]; E. coli ATCC25922, peptide pre-incubated 1 h at 37°C with 1 mg/ml proteinase K): >128
- MIC, Enzymes Trypsin (E. coli ATCC25922 [7]; E. coli ATCC25922, peptide pre-incubated 1 h at 37°C with 1 mg/ml trypsin): 4
- antimicrobial activity after heat (in words) (E. coli ATCC25922 [7]; E. coli, incubation at 100°C for approximately 1 h): remained stable
- reduction of colony count (E. coli ATCC25922 [8]): 99%
